What was measured:
HFFs = test: Cytotoxicity assay (CCK-8 cell viability); type: cell-based, human; settings: for EC50: HFFs, 24 h, CCK-8
Protocol: (§1) Cultures of human foreskin fibroblast (HFF; HFF-1 ATCC® SCRC-1041™), Madin–Darby bovine kidney (MDBK; ECACC) and mouse embryonic fibroblast (NIH/3T3; ATCC® CRL-1658™) cells were retrieved from −80 °C stock and cultured continuously at 37 °C under atmosphere 5% CO2 in our laboratory. The NIH/3T3 and HFFs cells were maintained in Dulbecco Modified Eagle’s Medium (DMEM; Gibco, Grand Island, NY, USA), while MDBK cell line grown in Minimum Essential Medium Eagle (MEM; Gibco). Each medium was treated with 0.5% penicillin/streptomycin (Gibco), 10% inactivated fetal bovine serum and 2 mM glutamine. Every 72 to 96 h, the medium was replaced, and once 80% confluence was reached, the cell collection was performed by sub-culture protocol. To confirm the absence of mycoplasma contamination, 4,6-diamidino-2-phenylindole dihydrochloride stain (Sigma-Aldrich) was used.
(§2) The cell viability test was conducted in a 96-well plate as described elsewhere. Briefly, an aliquot of (100 µL) cells was implanted at a concentration of 5 × 10^4 cells/mL in DMEM or MEM with fetal bovine serum and incubated overnight under atmosphere 5% CO2 at 37 °C for attachment. Using two-fold dilutions, aliquots (10 µL) of drugs were added in triplicate per well to attain final concentrations of 50 to 1000 µM and further incubated for 24 h. The positive control wells containing cells mixed with the medium in 0.4% DMSO, whereas the negative control wells containing culture medium only. After a 24-h incubation, Cell Counting Kits-8 (CCK-8, 10 µL) was added to each well and then plate incubation was conducted for an additional 3 h and a microplate reader was used to assess the absorbance at 450 nm.

[1] = Hematology parameters (HGB, HCT, RBCs) in B. microti-infected treated mice; type: in vivo, BALB/c mice; design: HGB Mean: unit not given beside the values; RBCs Mean: unit not given here; settings: DA 25, AV 20, ATR 25, ATR 12.5+DA 12.5, ATR 12.5+AV 10 mg/kg BW, days 4-8 p.i.
MDBK cells = test: Cytotoxicity assay (CCK-8 cell viability); type: cell-based, bovine; settings: for EC50: MDBK cells, 24 h, CCK-8
Protocol: as §1, §2

B. divergens = test: In vitro growth inhibition, Babesia fluorescent (SYBR Green I) assay; type: cell-based; settings: 4 days culture, mean of triplicate experiments
Protocol: (§3) Babesia parasite was incubated and maintained at 37 °C in a humidifying chamber under 5% CO2, 5% O2, and 90% N2 atmosphere using a microaerophilic stationary-phase culture for conducting the in vitro experiment. Briefly, Germany strain Babesia divergens was cultured in cattle RBCs in Roswell Park Memorial Institute 1640 (RPMI 1640; Sigma-Aldrich, St. Louis, MO, USA) medium replenished with 40% cattle serum, while culture medium 199 (M199; Sigma-Aldrich) was utilized for the Argentina strain B. bigemina and Texas strain B. bovis, and T. equi USDA strain cultured in cattle RBCs supplemented with 40% cattle serum and horse RBCs maintained in hypoxanthine (MP Biomedicals, Santa Ana, CA, USA; final concentration 13.6 μg/mL) and 40% horse serum, respectively. GIT medium complemented with 40% horse serum was used as a growth medium for the USDA strain of B. caballi cultured in horse RBCs. To ensure free-bacterial contamination, amphotericin B (0.15 μg/mL) (Sigma-Aldrich), streptomycin (60 U/mL) and penicillin G (60 U/mL) were added to all medium.
(§4) The Babesia fluorescent assay was carried out on the in vitro culture as previously reported elsewhere to assess the growth of the inhibitory effectiveness of ATR and the combination treatment with DA, CF, and AV. Briefly, in three separate trials, using two-fold dilution, different concentrations of ATR, DA, CF, and AV were prepared in the culture medium and added in 96-well plates in triplicate with 1% parasitemia for T. equi, B. divergens and B. caballi at 5% HCT, while for B. bigemina and B. bovis using 2.5% HCT. The drug combined efficacy was conducted at the same time with the single-treatment assay in accordance with the Chou–Talalay method. […] On day four of culture, an aliquot (100 µL) of lysis buffer mixed with 0.2μL/mL SG1 was added per well; subsequently, it was covered with aluminum foil to prevent exposure to light. After incubation for 6-h at 37 °C, fluorescence readings were acquired on a spectrofluorimeter (Fluoroskan Ascent, Thermo Fisher Scientific, Oceanside, CA, USA) with a 485 nm excitation wavelength and a 518 nm emission wavelength.
(§5) The IC50 values of ATR, DA, CF, and AV were established from the in vitro growth inhibition by nonlinear regression curve fit on a GraphPad Prism (GraphPad Software Inc., San Diego, CA, USA). […] The significant variations (p < 0.05) among group mean values on parasitemia and one-way ANOVA Tukey’s test in GraphPad Prism version 5.0 was used to analyze hematology profiles in mice infected with B. microti.

B. bigemina = test: as above; type: cell-based; settings: 4 days culture, mean of triplicate experiments
Protocol: as §3, §4, §5

T. equi = test: as above; type: cell-based; settings: 4 days culture, mean of triplicate experiments
Protocol: as §3, §4, §5

B. caballi = test: as above; type: cell-based; settings: 4 days culture, mean of triplicate experiments
Protocol: as §3, §4, §5

B. bovis = test: as above; type: cell-based; settings: 4 days culture, mean of triplicate experiments
Protocol: as §3, §4, §5

O=C1C(O)=C([C@H]2CC[C@H](c3ccc(Cl)cc3)CC2)C(=O)c2ccccc21 [AV, atovaquone]
Selective Index HFFs (HFFs; EC50 HFFs / IC50 B. bigemina): ˃142.7
Selective Index HFFs (HFFs; EC50 HFFs / IC50 B. bovis): ˃2564
Selective Index HFFs (HFFs; EC50 HFFs / IC50 B. caballi): ˃980.4
Selective Index HFFs (HFFs; EC50 HFFs / IC50 B. divergens): ˃2631
Selective Index HFFs (HFFs; EC50 HFFs / IC50 T. equi): ˃1052
EC50 (HFFs; Homo sapiens): > 100 µM
HCT Mean ([1]; day 0): 47.48%
HGB Mean ([1]; day 0): 14.44
RBCs Mean ([1]; day 0): 1060.62
HCT Mean ([1]; day 4): 45%
HGB Mean ([1]; day 4): 13.64
RBCs Mean ([1]; day 4): 984.75
HCT Mean ([1]; day 8): 44%
HGB Mean ([1]; day 8): 14.34
RBCs Mean ([1]; day 8): 878
HCT Mean ([1]; day 12): 40%
HGB Mean ([1]; day 12): 12.6
RBCs Mean ([1]; day 12): 850
HCT Mean ([1]; day 16): 43%
HGB Mean ([1]; day 16): 13.96
RBCs Mean ([1]; day 16): 830.25
HCT Mean ([1]; day 20): 45%
HGB Mean ([1]; day 20): 14.92
RBCs Mean ([1]; day 20): 844
HCT Mean ([1]; day 24): 46%
HGB Mean ([1]; day 24): 15.4
RBCs Mean ([1]; day 24): 850
HCT Mean ([1]; day 28): 48%
HGB Mean ([1]; day 28): 15.64
RBCs Mean ([1]; day 28): 984.75
HCT Mean ([1]; day 32): 50%
HGB Mean ([1]; day 32): 16
RBCs Mean ([1]; day 32): 1000.62
HCT Mean ([1]; day 36): 51%
HGB Mean ([1]; day 36): 16.44
RBCs Mean ([1]; day 36): 1060.62
EC50 (MDBK cells; Bos taurus): > 100 µM
Selective Index MDBK (MDBK cells; EC50 MDBK / IC50 B. bigemina): ˃142.7
Selective Index MDBK (MDBK cells; EC50 MDBK / IC50 B. bovis): ˃2564
Selective Index MDBK (MDBK cells; EC50 MDBK / IC50 B. caballi): ˃980.4
Selective Index MDBK (MDBK cells; EC50 MDBK / IC50 B. divergens): ˃2631
Selective Index MDBK (MDBK cells; EC50 MDBK / IC50 T. equi): ˃1052
IC50 (B. divergens; 96 h): 40 nM
IC50 (B. bigemina; 96 h): 700 ± 40 nM
IC50 (T. equi; 96 h): 90 ± 60 nM
IC50 (B. caballi; Babesia caballi, 96 h): 100 ± 10 nM
IC50 (B. bovis; Bos taurus, 96 h): 40 nM

CC(=O)NCC(=O)O.CC(=O)NCC(=O)O.N=C(N)c1ccc(N=NNc2ccc(C(=N)N)cc2)cc1 [DA, diminazene aceturate]
Selective Index HFFs (HFFs; EC50 HFFs / IC50 B. bigemina): ˃147.1
Selective Index HFFs (HFFs; EC50 HFFs / IC50 B. bovis): ˃285.7
Selective Index HFFs (HFFs; EC50 HFFs / IC50 B. caballi): ˃5000
Selective Index HFFs (HFFs; EC50 HFFs / IC50 B. divergens): ˃232.5
Selective Index HFFs (HFFs; EC50 HFFs / IC50 T. equi): ˃140.8
EC50 (HFFs): > 100 µM
HCT Mean ([1]; day 0): 46.48%
HGB Mean ([1]; day 0): 15.64
RBCs Mean ([1]; day 0): 990.625
HCT Mean ([1]; day 4): 46.18%
HGB Mean ([1]; day 4): 13.64
RBCs Mean ([1]; day 4): 954.75
HCT Mean ([1]; day 8): 46.18%
HGB Mean ([1]; day 8): 14.72
RBCs Mean ([1]; day 8): 888.25
HCT Mean ([1]; day 12): 44.1%
HGB Mean ([1]; day 12): 13.6
RBCs Mean ([1]; day 12): 860
HCT Mean ([1]; day 16): 45.52%
HGB Mean ([1]; day 16): 14.46
RBCs Mean ([1]; day 16): 870.25
HCT Mean ([1]; day 20): 44.14%
HGB Mean ([1]; day 20): 15.02
RBCs Mean ([1]; day 20): 880
HCT Mean ([1]; day 24): 46%
HGB Mean ([1]; day 24): 15.2
RBCs Mean ([1]; day 24): 888
HCT Mean ([1]; day 28): 47%
HGB Mean ([1]; day 28): 15.64
RBCs Mean ([1]; day 28): 984.75
HCT Mean ([1]; day 32): 49%
HGB Mean ([1]; day 32): 15.94
RBCs Mean ([1]; day 32): 990.625
HCT Mean ([1]; day 36): 49%
HGB Mean ([1]; day 36): 16.64
RBCs Mean ([1]; day 36): 997.625
Selective Index MDBK (MDBK cells; EC50 MDBK / IC50 B. bigemina): ˃147.1
Selective Index MDBK (MDBK cells; EC50 MDBK / IC50 B. bovis): ˃285.7
Selective Index MDBK (MDBK cells; EC50 MDBK / IC50 B. caballi): ˃5000
Selective Index MDBK (MDBK cells; EC50 MDBK / IC50 B. divergens): ˃232.5
Selective Index MDBK (MDBK cells; EC50 MDBK / IC50 T. equi): ˃140.8
EC50 (MDBK cells): > 100 µM
IC50 (B. divergens): 430 ± 50 nM
IC50 (B. bigemina): 680 ± 90 nM
IC50 (T. equi): 710 ± 50 nM
IC50 (B. caballi): 20 nM
IC50 (B. bovis): 350 ± 60 nM
